# Assay results as given in US20100137206A1, “NOVEL LIGAND GUIDED BLOCK COPOLYMERS FOR TARGETED DRUG DELIVERY” (priority 2006, published 2010).
# Like-named read-outs stand apart in the source and are kept apart here.
# Tested on: B16-F10 cells
# Assay: MTT cytotoxicity of DOX-containing micelles
# Format: cell-based
# Conditions: for IC50: read-out: IC50 (μM) of DOX equivalent
# Protocol: Briefly, 4000 cells were plated in 96-well plates and incubated for 24 h to allow the cells to attach. […] Living cells metabolize MTT to a dark formazan dye. The cell culture media was removed by aspiration and replaced with 200 μL DMSO. The absorbance was measured spectrophotometrically using a microplate reader at dual wavelengths of 570 nm and 650 nm. The data reported represent the means of triplicate measurement.
Compound,IC50 (24 h incubation) [µM],IC50 (48 h incubation) [µM],fold difference of IC50 in comparison to free DOX (24 h incubation) [fold],fold difference of IC50 in comparison to free DOX (48 h incubation) [fold]
"COc1cccc2c1C(=O)c1c(O)c3c(c(O)c1C2=O)C[C@@](O)(C(=O)CO)C[C@@H]3O[C@H]1C[C@H](N)[C@H](O)[C@H](C)O1 [Free DOX, doxorubicin, reference compound]",0.417,0.204,–,–
doxorubicin-conjugated acetal polyethylene oxide)-block-poly(caprolactone) [Acetal-PEO-b-PCL(DOX)],5.95,1.28,14.3,6.3
